PubChem BioAssay AID2060600 (Molecular Pharmacology Branch, DTP, NCI, 2025)

Test system: 996289-038-R-J1-PDC complex spheroid viability
Assay: Anticancer human tumor 996289-038-R-J1-PDC patient-derived colon adenocarcinoma cell line growth inhibition [CLK]
Settings: for IC50: curve of first compound; for viability, T/C: stronger effect = lower value
In short: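 Multi-cell-type spheroids combined patient-derived tumor cells with HUVEC endothelial cells and human mesenchymal stem cells. Paired agents were dosed in half-log steps down from about clinical Cmax, or from 10 microM where Cmax was unknown.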

[1] = second compound 0.0316 µM, first compound 0.0316 µM
[2] = second compound 0.0316 µM, first compound 0.1 µM
[3] = second compound 0.0316 µM, first compound 0.316 µM
[4] = second compound 0.0316 µM, first compound 1 µM
[5] = second compound 0.0316 µM, first compound 3.16 µM
[6] = second compound 0.0316 µM, first compound 10 µM
[7] = second compound 0.1 µM, first compound 0.0316 µM
[8] = second compound 0.1 µM, first compound 0.1 µM
[9] = second compound 0.1 µM, first compound 0.316 µM
[10] = second compound 0.1 µM, first compound 1 µM
[11] = second compound 0.1 µM, first compound 3.16 µM
[12] = second compound 0.1 µM, first compound 10 µM
[13] = second compound 0.316 µM, first compound 0.0316 µM
[14] = second compound 0.316 µM, first compound 0.1 µM
[15] = second compound 0.316 µM, first compound 0.316 µM
[16] = second compound 0.316 µM, first compound 1 µM
[17] = second compound 0.316 µM, first compound 3.16 µM
[18] = second compound 0.316 µM, first compound 10 µM
[19] = second compound 1 µM, first compound 0.0316 µM
[20] = second compound 1 µM, first compound 0.1 µM
[21] = second compound 1 µM, first compound 0.316 µM
[22] = second compound 1 µM, first compound 1 µM
[23] = second compound 1 µM, first compound 3.16 µM
[24] = second compound 1 µM, first compound 10 µM
[25] = second compound 3.16 µM, first compound 0.0316 µM
[26] = second compound 3.16 µM, first compound 0.1 µM
[27] = second compound 3.16 µM, first compound 0.316 µM
[28] = second compound 3.16 µM, first compound 1 µM
[29] = second compound 3.16 µM, first compound 3.16 µM
[30] = second compound 3.16 µM, first compound 10 µM
[31] = second compound 10 µM, first compound 0.0316 µM
[32] = second compound 10 µM, first compound 0.1 µM
[33] = second compound 10 µM, first compound 0.316 µM
[34] = second compound 10 µM, first compound 1 µM
[35] = second compound 10 µM, first compound 3.16 µM
[36] = second compound 10 µM, first compound 10 µM
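Note: spheroids exposed to the agents for 7 days before readout.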

Structure (SMILES): CC1COCCN1c1cc(C2(S(C)(=N)=O)CC2)nc(-c2ccnc3[nH]ccc23)n1 (centres undefined) + CN1CCN(c2cc(C(=O)Nc3cc4cc(-c5cnn(C)c5)ccc4cn3)ccn2)CC1
- IC50 (second compound 0.0316 µM): > 10 µM
- IC50 (second compound 0.1 µM): > 10 µM
- IC50 (second compound 0.316 µM): > 10 µM
- IC50 (second compound 1 µM): < 0.0316 µM
- IC50 (second compound 3.16 µM): < 0.0316 µM
- IC50 (second compound 10 µM): < 0.0316 µM
- viability, T/C [1]: 103%
- viability, T/C [2]: 104%
- viability, T/C [3]: 98.1%
- viability, T/C [4]: 103%
- viability, T/C [5]: 99.2%
- viability, T/C [6]: 80.8%
- viability, T/C [7]: 102%
- viability, T/C [8]: 91.3%
- viability, T/C [9]: 83.1%
- viability, T/C [10]: 91.7%
- viability, T/C [11]: 90.9%
- viability, T/C [12]: 71%
- viability, T/C [13]: 71.4%
- viability, T/C [14]: 70.1%
- viability, T/C [15]: 69.3%
- viability, T/C [16]: 62.7%
- viability, T/C [17]: 66%
- viability, T/C [18]: 49.9%
- viability, T/C [19]: 6.36%
- viability, T/C [20]: 8.03%
- viability, T/C [21]: 5.79%
- viability, T/C [22]: 5.93%
- viability, T/C [23]: 5.27%
- viability, T/C [24]: 4.07%
- viability, T/C [25]: 1.36%
- viability, T/C [26]: 1.15%
- viability, T/C [27]: 1.45%
- viability, T/C [28]: 0.91%
- viability, T/C [29]: 1.03%
- viability, T/C [30]: 2.2%
- viability, T/C [31]: 1.62%
- viability, T/C [32]: 0.34%
- viability, T/C [33]: 0.65%
- viability, T/C [34]: 0.65%
- viability, T/C [35]: 4.11%
- viability, T/C [36]: 0.52%

Structure (SMILES): O=C(c1cc(Cc2n[nH]c(=O)c3ccccc23)ccc1F)N1CCN(C(=O)C2CC2)CC1 + CN1CCN(c2cc(C(=O)Nc3cc4cc(-c5cnn(C)c5)ccc4cn3)ccn2)CC1
- IC50 (second compound 0.0316 µM): > 10 µM
- IC50 (second compound 0.1 µM): > 10 µM
- IC50 (second compound 0.316 µM): > 10 µM
- IC50 (second compound 1 µM): < 0.0316 µM
- IC50 (second compound 3.16 µM): < 0.0316 µM
- IC50 (second compound 10 µM): < 0.0316 µM
- viability, T/C [1]: 92.9%
- viability, T/C [2]: 109%
- viability, T/C [3]: 91.9%
- viability, T/C [4]: 110%
- viability, T/C [5]: 104%
- viability, T/C [6]: 100%
- viability, T/C [7]: 84.9%
- viability, T/C [8]: 97.3%
- viability, T/C [9]: 84.6%
- viability, T/C [10]: 89.2%
- viability, T/C [11]: 92.7%
- viability, T/C [12]: 87.8%
- viability, T/C [13]: 57.9%
- viability, T/C [14]: 65.9%
- viability, T/C [15]: 73.4%
- viability, T/C [16]: 58.4%
- viability, T/C [17]: 67.9%
- viability, T/C [18]: 60.4%
- viability, T/C [19]: 3.61%
- viability, T/C [20]: 4.51%
- viability, T/C [21]: 5.54%
- viability, T/C [22]: 3.94%
- viability, T/C [23]: 3.05%
- viability, T/C [24]: 5.36%
- viability, T/C [25]: 1.23%
- viability, T/C [26]: 1.19%
- viability, T/C [27]: 2.64%
- viability, T/C [28]: 1%
- viability, T/C [29]: 0.92%
- viability, T/C [30]: 1.35%
- viability, T/C [31]: 0.69%
- viability, T/C [32]: 1.28%
- viability, T/C [33]: 0.88%
- viability, T/C [34]: 2.07%
- viability, T/C [35]: 0.54%
- viability, T/C [36]: 2.19%
